Assay results reported in US6479456B1, “Antimicrobial perfume compositions” (Firmenich SA, priority 2000, dated 2002).

System: Pityrosporum ovale
Assay: agar surface coating test (ASCT) against Pityrosporum ovale, in shampoo
Format: cell-based
Conditions: shampoo containing Octopirox compared with a shampoo without Octopirox
Method: Whatever the chosen test according to the invention, a culture of the selected germ was set up on Petri dishes under the same test conditions in parallel with a control solution composed in general of sterilised water or of a saline solution. After the period(s) of incubation considered according to the selected test, the surface area of the dish which was free of bacteria and/or fungi was measured for both the tested compound and the control solution. By calculating a surface ratio, a relative surface value, enabling the selection of the compounds with an antimicrobial activity of at least 80% in one of these tests of effectiveness, was defined. The following germs were used in these methods: Pityrosporum ovale, Staphylococcus aureus, Staphylococcus epidermidis, Escherichia coli, Pseudomonas aeruginosa, Candida albicans, Trichophyton mentagrophytes. […]
The tested product and the agar surface are again left in contact for 30 s under the same conditions as above, followed by the stage of rinsing and of 24-h incubation at ambient temperature, and the antimicrobial evolution is observed again after this second phase of the test. […] The microbicidal or microbiostatic action can be established after each phase of the test, and recorded. […]

Cc1cc(CC(C)CC(C)(C)C)n(O)c(=O)c1.NCCO (stereo not shown) [Octopirox®, Piroctone olamine]
reduction of growth of P. ovale: 60%
